Here are results for 20 compounds from paper PMC10067442, “In vivo quantitative high-throughput screening for drug discovery and comparative toxicology” (Disease Models & Mechanisms, 2023).

Assay [1] deals with C. elegans strain PE254. The experiment in a line: C. elegans LSC qHTS viability assay, Anti-Infectives library primary screen (BG-fed, 384-well). The following applies: for activity on C. elegans viability in primary qHTS (in words): seven-point titration, GFP area; for EC50: Caenorhabditis elegans, Fig. 3D. It is filed as in vivo, Caenorhabditis elegans. The method, then: Levamisole, ivermectin and albendazole were purchased from Sigma-Aldrich. Stock solutions of all compounds were prepared at 10 mM in DMSO, and ivermectin was diluted to a 10 µM working dilution in DMSO. […] Of these, 284 (38%) are approved for clinical use in the United States, 32 (4%) were previously marketed for use in the United States, and 62 (8%) are used clinically outside of the United States. […] DMSO stock solutions of were arrayed in Echo-qualified 384-well cyclic olefin copolymer plates (Labcyte) in qHTS inter-plate dilution with seven concentrations, 1:5 dilution, resulting in a final concentration range of 2.5–20 mM high concentration titrated to 160 nM to 1.28 µM low concentration ([Yasgar et al., 2008]). ‘Assay-ready’ plates were prepared in 384-well uClear microtiter plates (Greiner BioOne), with compounds acoustically dispensed at 250 nl per well with an Echo 555 in the above inter-plate titration array. Two plates with DMSO added across the compound field at the same volume were prepared as screening controls (‘uniformity plates’). DMSO vehicle control was added to every well of column 1, and levamisole cytotoxicity control was added at a high concentration of 10 mM in wells 1–8 and titrated 1:3, starting at a high concentration of 10 mM to 4.57 µM in wells 9–16 of column 2 of every plate. Additionally, ivermectin, levamisol and albendazole were plated as internal controls on one assay plate in 16-point, 1:2 titration down six replicate columns per compound, starting at a high concentration of 10 µM (ivermectin) or 10 mM (levamisole and albendazole). Assay-ready plates were sealed and frozen at −80°C until use.
C. elegans strain PE254 were collected from 12 NGM plates as above, transferred to 250 ml S medium supplemented with OP50 E. coli pellet collected from 2 l overnight culture, and grown for 5 days at 21°C with vigorous shaking in an Incu-Shaker Mini Shaking Incubator (Benchmark Scientific, Inc.). Eggs were axenized as above and hatched overnight in M9 buffer at 21°C and shaken at 65 rpm. Assay ready plates were thawed and allowed to equilibrate to ambient temperature. BGs in S medium (30 µl/well) at an OD600=0.85 were manually added across plates with a Capp pipette. Synchronized L1 worms from above were collected, diluted and plated at ten worms/30 µl/well with a Capp pipette into assay-ready microtiter plates pre-plated with BGs and compounds (240-fold dilution). […] No ethical approval or guidance is needed for working with nematodes.
Data from the Anti-Infectives screen were normalized by plate to corresponding intra-plate controls as previously described ([Inglese et al., 2006]). Assay statistics were calculated using the same respective controls. Total object ‘GFP’ area (µm^2) and number of worms were normalized to the average signal of DMSO-treated wells as zero percent neutral control, and the average signal of 41.7 µM levamisole-treated wells as −100% activity. In-house software was used to fit the resulting inter-plate titration data to the standard Hill equation, and concentration–response curves were classified by activity as previously described ([Southall et al., 2009]). Curve fits assignments of −1.1, −1.2, −2.1, −2.2 and −3 were considered active and visually confirmed.

In assay [2] the test system is C. elegans strain PE254. The experiment in a line: Life-stage distribution analysis by COPAS flow cytometry after 7-day treatment. It counts as in vivo, Caenorhabditis elegans. The conditions noted are these: 7-day treatment at ∼EC75-80, mixed population of 2000 worms/well. On the procedure: After 7 days of compound treatment in six-well culture plates seeded with a mixed population of 2000 C. elegans strain PE254, a life-stage distribution analysis was determined by TOF and EC using the COPAS FP BioSorter, followed by bulk collection in a 50 ml conical tube for use in proteomics studies.
On the technique in general: A flow cytometer gives signals particle by particle.

The mark [3] stands for this setting: read-out: qHTS potency based on GFP area.
Where [4] appears, read: read-out: qHTS potency based on worm number.

The structures appear in SMILES notation. Counter-ions that a name gives are not always drawn. Like-named read-outs stand apart in the source and are kept apart here.

`Cc1noc2c1-c1ccccc1C(c1ccc(Cl)cc1)=N[C@H]2CC(N)=O` [CPI-0610]: the “activity on C. elegans viability in primary qHTS (in words)” value (“activity on C. elegans viability” below) with C. elegans strain PE254 [1] is given as “Active”.

With `COC[C@H](NC(=O)c1cnc(C)s1)C(=O)N[C@@H](COC)C(=O)N[C@@H](Cc1ccccc1)C(=O)[C@@]1(C)CO1` [Oprozomib], the “activity on C. elegans viability” value with C. elegans strain PE254 [1] was “Inactive”.

Take `Cc1cc(/C=C/c2ccc3cc(N(C)C)ccc3[n+]2C)c(C)n1-c1ccccc1` [Pyrvinium pamoate]: the “activity on C. elegans viability” value in the assay with C. elegans strain PE254 [1] is listed as “active”.

Turning to `Cn1cnc2c(F)c(Nc3ccc(Br)cc3Cl)c(C(=O)NOCCO)cc21` [Selumetinib], the “effect on life stage viability (in words)” value (from here on “effect”) is “no discernable effect” in the assay on C. elegans strain PE254 [2] and “inactive” in the assay with C. elegans strain PE254 [2] (listed as 10).

Consider `CC(C)C[C@H](NC(=O)[C@@H](NC(=O)c1cccc(-c2ccccc2)n1)[C@@H](C)O)B(O)O` [Delanzomib], for which the EC50 in the assay on C. elegans strain PE254 [1] (setting [3]) amounted to 405 nM; in the assay on C. elegans strain PE254 [1] (setting [4]), 311 nM.

On to `CCNC(=O)C[C@@H]1N=C(c2ccc(Cl)cc2)c2cc(OC)ccc2-n2c(C)nnc21` [I-BET762], for which the “activity on C. elegans viability” value in the assay on C. elegans strain PE254 [1] is reported as “Active”.

Regarding `C[C@H](NC(=O)[C@@H](O)c1cc(F)cc(F)c1)C(=O)N[C@@H]1C(=O)N(C)c2ccccc2-c2ccccc21` [LY-411575], in the assay on C. elegans strain PE254 [2], the “effect” value is “affecting life-stage progression or number”.

Regarding `CC(C)C[C@H](NC(=O)[C@H](CCc1ccccc1)NC(=O)CN1CCOCC1)C(=O)N[C@@H](Cc1ccccc1)C(=O)N[C@@H](CC(C)C)C(=O)[C@@]1(C)CO1` [Carfilzomib], in the assay on C. elegans strain PE254 [1], the “activity on C. elegans viability” value was “Inactive”.

Turning to `CC(=O)N1c2ccc(-c3ccc(C(=O)O)cc3)cc2[C@H](Nc2ccc(Cl)cc2)C[C@@H]1C` [GSK1324726A], the “activity on C. elegans viability” value with C. elegans strain PE254 [1] was “Active”.

Take `O=C(NO)c1cccc(C(=O)NCCc2ccccc2)c1` [BRD73954]: in the assay on C. elegans strain PE254 [1], the “activity on C. elegans viability” value is “inactive”.

As for `CC[C@H](C)[C@H](NC(=O)[C@H]([C@@H](C)CC)N(C)C(C)=O)C(=O)N[C@H](C(=O)N[C@@H](CC(C)C)C(=O)[C@@]1(C)CO1)[C@@H](C)O` [Epoxomicin], the “activity on C. elegans viability” value in the assay on C. elegans strain PE254 [1] is “Inactive”.

Consider `CCCC[C@@H](C=O)NC(=O)[C@H](CC(C)C)NC(=O)OCc1ccccc1` [Calpeptin], for which the “activity on C. elegans viability” value in the assay with C. elegans strain PE254 [1] is “Inactive”.

As for `Cc1sc2c(c1C)C(c1ccc(Cl)cc1)=N[C@@H](CC(=O)Nc1ccc(O)cc1)c1nnc(C)n1-2` [OTX-015], in the assay on C. elegans strain PE254 [1], the “activity on C. elegans viability” value was “inactive”.

Consider `CC(C)C[C@H](NC(=O)CNC(=O)c1cc(Cl)ccc1Cl)B1OC(=O)C(CC(=O)O)(CC(=O)O)O1` [Ixazomib citrate], for which the EC50 was found to be 411 nM in the assay on C. elegans strain PE254 [1] (setting [3]) and 382 nM with C. elegans strain PE254 [1] (setting [4]).

For `C=CC(=O)N1C/C(=C\c2ccc([N+](=O)[O-])cc2)C(=O)/C(=C/c2ccc([N+](=O)[O-])cc2)C1` [b-AP15], the “activity on C. elegans viability” value with C. elegans strain PE254 [1] is listed as “Inactive”.

Regarding `CC(=O)Nc1cccc(-n2c(=O)n(C3CC3)c(=O)c3c(Nc4ccc(I)cc4F)n(C)c(=O)c(C)c32)c1` [Trametinib], the entries for the “effect” value in the assay on C. elegans strain PE254 [2] and in the assay with C. elegans strain PE254 [2] (listed as 9) were “potent larval-stage depletion” and “affecting life-stage progression or number”, respectively.

Consider `COc1cc2c(cc1-c1c(C)noc1C)ncc1[nH]c(=O)n([C@H](C)c3ccccn3)c12` [I-BET151], for which the “activity on C. elegans viability” value in the assay on C. elegans strain PE254 [1] is “inactive”.

Turning to `CC(C)C[C@H](NC(=O)CNC(=O)c1cc(Cl)ccc1Cl)B(O)O` [Ixazomib], the EC50 turned out to be 1130 nM with C. elegans strain PE254 [1] (setting [3]) and 863 nM in the assay on C. elegans strain PE254 [1] (setting [4]).

Regarding `Cc1sc2c(c1C)C(c1ccc(Cl)cc1)=N[C@@H](CC(=O)OC(C)(C)C)c1nnc(C)n1-2` [JQ1], the “activity on C. elegans viability” value with C. elegans strain PE254 [1] was “Active”.

Turning to `O=[N+]([O-])c1ccc(S(=O)(=O)N2CCN(c3ccnc4cc(Cl)ccc34)CC2)c([N+](=O)[O-])c1` [VR23], in the assay on C. elegans strain PE254 [1], the “activity on C. elegans viability” value is listed as “Inactive”.
